Assay results from article PMC11995216, “End-to-End Backbone Cyclization Enhances Passive Permeability of bRo5 Oligomeric Depsipeptides with Nonlinear Size Dependence” (ACS Medicinal Chemistry Letters, 2025).
Like-named read-outs stand apart in the source and are kept apart here.

Tests used:
PAMPA [1] = system: PAMPA
PAMPA [2] = system: PAMPA; remark: listed apart in the source
[3] = PAMPA, permeability assay across an artificial membrane; conditions: for Acceptor Concentration, Ave: after incubation
[4] = PAMPA, ratio-based method, mean ± SD, C0 500 uM, UV detection

SMILES: CCCCC[C@@H]1OC(=O)[C@@H](C)N(C)C(=O)[C@H](CCCCC)OC(=O)[C@@H](C)N(C)C(=O)[C@H](CCCCC)OC(=O)[C@@H](C)N(C)C(=O)[C@H](CCCCC)OC(=O)[C@@H](C)N(C)C1=O [Compound C1.4, ent-verticilide]
- Papp (PAMPA [1]; Papp (x 10^-6 cm/s) – ELSD Detection / [row 1], ELSD Detection): 7.05 ×10⁻⁶ cm/s
- Papp (PAMPA [1]; Papp (x 10^-6 cm/s) – ELSD Detection / [row 2], ELSD Detection): 7.2 ×10⁻⁶ cm/s
- Papp (PAMPA [1]; Papp (x 10^-6 cm/s) – ELSD Detection / [row 3], ELSD Detection): 4.28 ×10⁻⁶ cm/s
- Papp (PAMPA [1]; Papp (x 10^-6 cm/s) – ELSD Detection / [row 4], ELSD Detection): 7.39 ×10⁻⁶ cm/s
- Papp (PAMPA [1]; Papp (x 10^-6 cm/s) – ELSD Detection / [row 5], ELSD Detection): 4.99 ×10⁻⁶ cm/s
- Papp (PAMPA [1]; Papp (x 10^-6 cm/s) – ELSD Detection / [row 6], ELSD Detection): 6.24 ×10⁻⁶ cm/s
- Papp (PAMPA [1]; Papp (x 10^-6 cm/s) – ELSD Detection / [row 7], ELSD Detection): 5.58 ×10⁻⁶ cm/s
- Papp (PAMPA [1]; Papp (x 10^-6 cm/s) – ELSD Detection / [row 8], ELSD Detection): 7.27 ×10⁻⁶ cm/s
- Papp (PAMPA [1]; Papp (x 10^-6 cm/s) – ELSD Detection / [row 9], ELSD Detection): 4.68 ×10⁻⁶ cm/s
- Papp (PAMPA [1]; Papp (x 10^-6 cm/s) – ELSD Detection / [row 10], ELSD Detection): 4.63 ×10⁻⁶ cm/s
- Papp (PAMPA [1]; Papp (x 10^-6 cm/s) – ELSD Detection / [row 11], ELSD Detection): 4.05 ×10⁻⁶ cm/s
- Papp (PAMPA [1]; Papp (x 10^-6 cm/s) – ELSD Detection / [row 12], ELSD Detection): 6.98 ×10⁻⁶ cm/s
- Papp (PAMPA [1]; Papp (x 10^-6 cm/s) – ELSD Detection / [row 13], ELSD Detection): 4.62 ×10⁻⁶ cm/s
- Papp (PAMPA [1]; Papp (x 10^-6 cm/s) – ELSD Detection / [row 14], ELSD Detection): 3.79 ×10⁻⁶ cm/s
- Papp (PAMPA [1]; Papp (x 10^-6 cm/s) – ELSD Detection / [row 15], ELSD Detection): 4.66 ×10⁻⁶ cm/s
- Papp (PAMPA [1]; Papp (x 10^-6 cm/s) – ELSD Detection / [row 16], ELSD Detection): 5.98 ×10⁻⁶ cm/s
- Papp (PAMPA [1]; Papp (x 10^-6 cm/s) – ELSD Detection / [row 17], ELSD Detection): 5.46 ×10⁻⁶ cm/s
- Papp (PAMPA [1]; Papp (x 10^-6 cm/s) – ELSD Detection / [row 18], ELSD Detection): 6.2 ×10⁻⁶ cm/s
- Papp (PAMPA [1]; Papp (x 10^-6 cm/s) – ELSD Detection / [row 19], ELSD Detection): 5.51 ×10⁻⁶ cm/s
- Papp (PAMPA [1]; Papp (x 10^-6 cm/s) – ELSD Detection / [row 20], ELSD Detection): 5.72 ×10⁻⁶ cm/s
- Papp (PAMPA [1]; Papp (x 10^-6 cm/s) – ELSD Detection / [row 21], ELSD Detection): 4.75 ×10⁻⁶ cm/s
- Papp (PAMPA [1]; Papp (x 10^-6 cm/s) – ELSD Detection / [row 22], ELSD Detection): 7.56 ×10⁻⁶ cm/s
- Papp (PAMPA [1]; Papp (x 10^-6 cm/s) – ELSD Detection / [row 23], ELSD Detection): 7.22 ×10⁻⁶ cm/s
- Papp (PAMPA [1]; Papp (x 10^-6 cm/s) – ELSD Detection / [row 24], ELSD Detection): 4.78 ×10⁻⁶ cm/s
- Papp (PAMPA [1]; Papp (x 10^-6 cm/s) – UV Detection / [row 1], UV Detection): 6.39 ×10⁻⁶ cm/s
- Papp (PAMPA [1]; Papp (x 10^-6 cm/s) – UV Detection / [row 2], UV Detection): 7.95 ×10⁻⁶ cm/s
- Papp (PAMPA [1]; Papp (x 10^-6 cm/s) – UV Detection / [row 3], UV Detection): 6.48 ×10⁻⁶ cm/s
- Papp (PAMPA [1]; Papp (x 10^-6 cm/s) – UV Detection / [row 4], UV Detection): 7.85 ×10⁻⁶ cm/s
- Papp (PAMPA [1]; Papp (x 10^-6 cm/s) – UV Detection / [row 5], UV Detection): 6.83 ×10⁻⁶ cm/s
- Papp (PAMPA [1]; Papp (x 10^-6 cm/s) – UV Detection / [row 6], UV Detection): 7.11 ×10⁻⁶ cm/s
- Papp (PAMPA [1]; Papp (x 10^-6 cm/s) – UV Detection / [row 7], UV Detection): 6.85 ×10⁻⁶ cm/s
- Papp (PAMPA [1]; Papp (x 10^-6 cm/s) – UV Detection / [row 8], UV Detection): 7.63 ×10⁻⁶ cm/s
- Papp (PAMPA [1]; Papp (x 10^-6 cm/s) – UV Detection / [row 9], UV Detection): 4.68 ×10⁻⁶ cm/s
- Papp (PAMPA [1]; Papp (x 10^-6 cm/s) – UV Detection / [row 10], UV Detection): 4.63 ×10⁻⁶ cm/s
- Papp (PAMPA [1]; Papp (x 10^-6 cm/s) – UV Detection / [row 11], UV Detection): 4.05 ×10⁻⁶ cm/s
- Papp (PAMPA [1]; Papp (x 10^-6 cm/s) – UV Detection / [row 12], UV Detection): 6.98 ×10⁻⁶ cm/s
- Papp (PAMPA [1]; Papp (x 10^-6 cm/s) – UV Detection / [row 13], UV Detection): 4.62 ×10⁻⁶ cm/s
- Papp (PAMPA [1]; Papp (x 10^-6 cm/s) – UV Detection / [row 14], UV Detection): 3.79 ×10⁻⁶ cm/s
- Papp (PAMPA [1]; Papp (x 10^-6 cm/s) – UV Detection / [row 15], UV Detection): 4.66 ×10⁻⁶ cm/s
- Papp (PAMPA [1]; Papp (x 10^-6 cm/s) – UV Detection / [row 16], UV Detection): 5.98 ×10⁻⁶ cm/s
- Papp (PAMPA [1]; Papp (x 10^-6 cm/s) – UV Detection / [row 17], UV Detection): 6.44 ×10⁻⁶ cm/s
- Papp (PAMPA [1]; Papp (x 10^-6 cm/s) – UV Detection / [row 18], UV Detection): 7.86 ×10⁻⁶ cm/s
- Papp (PAMPA [1]; Papp (x 10^-6 cm/s) – UV Detection / [row 19], UV Detection): 4.86 ×10⁻⁶ cm/s
- Papp (PAMPA [1]; Papp (x 10^-6 cm/s) – UV Detection / [row 20], UV Detection): 6.27 ×10⁻⁶ cm/s
- Papp (PAMPA [1]; Papp (x 10^-6 cm/s) – UV Detection / [row 21], UV Detection): 6.77 ×10⁻⁶ cm/s
- Papp (PAMPA [1]; Papp (x 10^-6 cm/s) – UV Detection / [row 22], UV Detection): 5.18 ×10⁻⁶ cm/s
- Papp (PAMPA [1]; Papp (x 10^-6 cm/s) – UV Detection / [row 23], UV Detection): 5.55 ×10⁻⁶ cm/s
- Papp (PAMPA [1]; Papp (x 10^-6 cm/s) – UV Detection / [row 24], UV Detection): 6.05 ×10⁻⁶ cm/s
- Acceptor Concentration (PAMPA [2]; Acceptor Concentration (uM) – ELSD Detection / [row 1]): 122 µM
- Acceptor Concentration (PAMPA [2]; Acceptor Concentration (uM) – ELSD Detection / [row 2]): 148 µM
- Acceptor Concentration (PAMPA [2]; Acceptor Concentration (uM) – ELSD Detection / [row 3]): 157 µM
- Acceptor Concentration (PAMPA [2]; Acceptor Concentration (uM) – ELSD Detection / [row 4]): 122 µM
- Acceptor Concentration (PAMPA [2]; Acceptor Concentration (uM) – ELSD Detection / [row 5]): 137 µM
- Acceptor Concentration (PAMPA [2]; Acceptor Concentration (uM) – ELSD Detection / [row 6]): 76.5 µM
- Acceptor Concentration (PAMPA [2]; Acceptor Concentration (uM) – ELSD Detection / [row 7]): 98.2 µM
- Acceptor Concentration (PAMPA [2]; Acceptor Concentration (uM) – ELSD Detection / [row 8]): 94.4 µM
- Acceptor Concentration (PAMPA [2]; Acceptor Concentration (uM) – ELSD Detection / [row 9]): 105 µM
- Acceptor Concentration (PAMPA [2]; Acceptor Concentration (uM) – ELSD Detection / [row 10]): 92.1 µM
- Acceptor Concentration (PAMPA [2]; Acceptor Concentration (uM) – ELSD Detection / [row 11]): 114 µM
- Acceptor Concentration (PAMPA [2]; Acceptor Concentration (uM) – ELSD Detection / [row 12]): 159 µM
- Acceptor Concentration (PAMPA [2]; Acceptor Concentration (uM) – ELSD Detection / [row 13]): 121 µM
- Acceptor Concentration (PAMPA [2]; Acceptor Concentration (uM) – ELSD Detection / [row 14]): 125 µM
- Acceptor Concentration (PAMPA [2]; Acceptor Concentration (uM) – ELSD Detection / [row 15]): 150 µM
- Acceptor Concentration (PAMPA [2]; Acceptor Concentration (uM) – ELSD Detection / [row 16]): 136 µM
- Acceptor Concentration (PAMPA [2]; Acceptor Concentration (uM) – ELSD Detection / [row 17]): 142 µM
- Acceptor Concentration (PAMPA [2]; Acceptor Concentration (uM) – ELSD Detection / [row 18]): 129 µM
- Acceptor Concentration (PAMPA [2]; Acceptor Concentration (uM) – ELSD Detection / [row 19]): 90.2 µM
- Acceptor Concentration (PAMPA [2]; Acceptor Concentration (uM) – ELSD Detection / [row 20]): 59.8 µM
- Acceptor Concentration (PAMPA [2]; Acceptor Concentration (uM) – ELSD Detection / [row 21]): 91.7 µM
- Acceptor Concentration (PAMPA [2]; Acceptor Concentration (uM) – ELSD Detection / [row 22]): 130 µM
- Acceptor Concentration (PAMPA [2]; Acceptor Concentration (uM) – ELSD Detection / [row 23]): 115 µM
- Acceptor Concentration (PAMPA [2]; Acceptor Concentration (uM) – ELSD Detection / [row 24]): 125 µM
- Diffusion (%) ([3]; PAMPA percent diffusion, C0 500 uM): 25.5 ± 3.4%
- Papp at 500 uM ([3]; PAMPA, Ave, ELSD detection, C0 500 uM): 5.69 ×10⁻⁶ cm/s
- Papp at 500 uM [3, 4]: 7.14 ± 0.65 ×10⁻⁶ cm/s
- Acceptor Concentration, Ave ([3]; PAMPA, ELSD detection, C0 500 uM): 118.4 µM
- Acceptor Concentration, Ave ([3]; PAMPA, UV detection, C0 500 uM): 127.6 µM
- Acceptor Concentration, Ave ([3]; PAMPA, UV detection, C0 500 uM, listed as ent‐Verticilide): 127.56 µM
- LogPapp [3, 4]: -5.21 ± 0.09
- Δ % diffusion ([3]; increase: difference between percent diffusion of macrocycle vs linear counterpart): ↑14%
